Experimental data reported in ChEMBL document CHEMBL4387741, “Optimization of novel reversible Bruton's tyrosine kinase inhibitors identified using Tethering-fragment-based screens” (Bioorg Med Chem, 2019).

Legend:
[1] = molecular target: Tyrosine-protein kinase BTK (Homo sapiens, UniProt Q06187); assay: Inhibition of BTK in human PBMC assessed as reduction in CD69 expression
[2] = molecular target: Calcium/calmodulin-dependent protein kinase type II subunit beta (Homo sapiens) (UniProt Q13554); assay: Inhibition of wild-type human partial length CAMK2B (M1 to Q380 residues) expressed in bacterial expression system at 1 uM by Kinomescan method relative to control
[3] = molecular target: Cyclin-dependent kinase 2 (Homo sapiens) (UniProt P24941); assay: Inhibition of wild-type human full length CDK2 (M1 to L298 residues) expressed in bacterial expression system at 1 uM by Kinomescan method relative to control
[4] = molecular target: Mitogen-activated protein kinase 6 (Homo sapiens) (UniProt Q16659); assay: Inhibition of wild-type human partial length ERK3 (M1 to P413 residues) expressed in bacterial expression system at 1 uM by Kinomescan method relative to control
[5] = molecular target: Tyrosine-protein kinase FRK (Homo sapiens) (UniProt P42685); assay: Inhibition of wild-type human partial length FRK (A215 to F503 residues) expressed in bacterial expression system at 1 uM by Kinomescan method relative to control
[6] = molecular target: Tyrosine-protein kinase JAK3 (Homo sapiens) (UniProt P52333); assay: Inhibition of wild-type human partial length JAK3 JH1 catalytic domain (I781 to S1124 residues) expressed in mammalian expression system at 1 uM by Kinomescan method relative to control
Chain of Tyrosine-protein kinase JAK3 (Homo sapiens) (P52333 whole entry, the tested form may be a part): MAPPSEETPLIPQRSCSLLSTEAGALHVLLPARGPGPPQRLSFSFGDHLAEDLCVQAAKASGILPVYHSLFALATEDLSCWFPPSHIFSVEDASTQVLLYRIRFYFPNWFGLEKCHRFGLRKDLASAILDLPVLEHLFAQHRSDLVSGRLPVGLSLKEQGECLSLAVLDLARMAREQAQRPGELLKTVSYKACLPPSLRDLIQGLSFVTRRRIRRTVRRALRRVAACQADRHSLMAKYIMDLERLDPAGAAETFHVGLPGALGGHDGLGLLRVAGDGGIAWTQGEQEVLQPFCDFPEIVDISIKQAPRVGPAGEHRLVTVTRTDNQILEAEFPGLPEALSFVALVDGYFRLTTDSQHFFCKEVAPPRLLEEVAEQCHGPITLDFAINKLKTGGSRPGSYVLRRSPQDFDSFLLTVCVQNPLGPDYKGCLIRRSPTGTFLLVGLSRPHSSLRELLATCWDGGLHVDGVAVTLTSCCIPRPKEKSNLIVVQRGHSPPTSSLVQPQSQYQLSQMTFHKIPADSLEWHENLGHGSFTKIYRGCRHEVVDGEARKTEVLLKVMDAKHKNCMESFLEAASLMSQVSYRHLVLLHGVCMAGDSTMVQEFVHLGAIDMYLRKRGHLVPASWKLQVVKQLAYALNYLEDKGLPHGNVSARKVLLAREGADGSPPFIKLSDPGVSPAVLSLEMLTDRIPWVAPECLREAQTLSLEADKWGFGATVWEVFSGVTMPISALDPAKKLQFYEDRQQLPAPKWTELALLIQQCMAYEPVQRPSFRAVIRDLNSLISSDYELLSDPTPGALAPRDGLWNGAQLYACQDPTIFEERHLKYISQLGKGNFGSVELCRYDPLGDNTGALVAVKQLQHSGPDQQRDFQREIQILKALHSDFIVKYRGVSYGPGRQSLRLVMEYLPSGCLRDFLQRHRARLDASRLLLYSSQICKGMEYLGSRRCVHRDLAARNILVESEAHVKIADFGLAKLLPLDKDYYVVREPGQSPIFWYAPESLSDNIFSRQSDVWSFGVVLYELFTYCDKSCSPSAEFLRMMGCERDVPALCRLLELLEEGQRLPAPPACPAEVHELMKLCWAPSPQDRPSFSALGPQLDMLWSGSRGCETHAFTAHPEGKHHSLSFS

[7] = system: Leucine-rich repeat serine/threonine-protein kinase 2 (Homo sapiens), Q5S007 [G2019S]; assay: Inhibition of human partial length LRRK2 G2019S mutant (H970 to E2527 residues) expressed in mammalian expression system at 1 uM by Kinomescan method relative to control
Chain of Leucine-rich repeat serine/threonine-protein kinase 2 (Homo sapiens), Q5S007 [G2019S] (Q5S007 whole entry G2019S, the tested form may be a part): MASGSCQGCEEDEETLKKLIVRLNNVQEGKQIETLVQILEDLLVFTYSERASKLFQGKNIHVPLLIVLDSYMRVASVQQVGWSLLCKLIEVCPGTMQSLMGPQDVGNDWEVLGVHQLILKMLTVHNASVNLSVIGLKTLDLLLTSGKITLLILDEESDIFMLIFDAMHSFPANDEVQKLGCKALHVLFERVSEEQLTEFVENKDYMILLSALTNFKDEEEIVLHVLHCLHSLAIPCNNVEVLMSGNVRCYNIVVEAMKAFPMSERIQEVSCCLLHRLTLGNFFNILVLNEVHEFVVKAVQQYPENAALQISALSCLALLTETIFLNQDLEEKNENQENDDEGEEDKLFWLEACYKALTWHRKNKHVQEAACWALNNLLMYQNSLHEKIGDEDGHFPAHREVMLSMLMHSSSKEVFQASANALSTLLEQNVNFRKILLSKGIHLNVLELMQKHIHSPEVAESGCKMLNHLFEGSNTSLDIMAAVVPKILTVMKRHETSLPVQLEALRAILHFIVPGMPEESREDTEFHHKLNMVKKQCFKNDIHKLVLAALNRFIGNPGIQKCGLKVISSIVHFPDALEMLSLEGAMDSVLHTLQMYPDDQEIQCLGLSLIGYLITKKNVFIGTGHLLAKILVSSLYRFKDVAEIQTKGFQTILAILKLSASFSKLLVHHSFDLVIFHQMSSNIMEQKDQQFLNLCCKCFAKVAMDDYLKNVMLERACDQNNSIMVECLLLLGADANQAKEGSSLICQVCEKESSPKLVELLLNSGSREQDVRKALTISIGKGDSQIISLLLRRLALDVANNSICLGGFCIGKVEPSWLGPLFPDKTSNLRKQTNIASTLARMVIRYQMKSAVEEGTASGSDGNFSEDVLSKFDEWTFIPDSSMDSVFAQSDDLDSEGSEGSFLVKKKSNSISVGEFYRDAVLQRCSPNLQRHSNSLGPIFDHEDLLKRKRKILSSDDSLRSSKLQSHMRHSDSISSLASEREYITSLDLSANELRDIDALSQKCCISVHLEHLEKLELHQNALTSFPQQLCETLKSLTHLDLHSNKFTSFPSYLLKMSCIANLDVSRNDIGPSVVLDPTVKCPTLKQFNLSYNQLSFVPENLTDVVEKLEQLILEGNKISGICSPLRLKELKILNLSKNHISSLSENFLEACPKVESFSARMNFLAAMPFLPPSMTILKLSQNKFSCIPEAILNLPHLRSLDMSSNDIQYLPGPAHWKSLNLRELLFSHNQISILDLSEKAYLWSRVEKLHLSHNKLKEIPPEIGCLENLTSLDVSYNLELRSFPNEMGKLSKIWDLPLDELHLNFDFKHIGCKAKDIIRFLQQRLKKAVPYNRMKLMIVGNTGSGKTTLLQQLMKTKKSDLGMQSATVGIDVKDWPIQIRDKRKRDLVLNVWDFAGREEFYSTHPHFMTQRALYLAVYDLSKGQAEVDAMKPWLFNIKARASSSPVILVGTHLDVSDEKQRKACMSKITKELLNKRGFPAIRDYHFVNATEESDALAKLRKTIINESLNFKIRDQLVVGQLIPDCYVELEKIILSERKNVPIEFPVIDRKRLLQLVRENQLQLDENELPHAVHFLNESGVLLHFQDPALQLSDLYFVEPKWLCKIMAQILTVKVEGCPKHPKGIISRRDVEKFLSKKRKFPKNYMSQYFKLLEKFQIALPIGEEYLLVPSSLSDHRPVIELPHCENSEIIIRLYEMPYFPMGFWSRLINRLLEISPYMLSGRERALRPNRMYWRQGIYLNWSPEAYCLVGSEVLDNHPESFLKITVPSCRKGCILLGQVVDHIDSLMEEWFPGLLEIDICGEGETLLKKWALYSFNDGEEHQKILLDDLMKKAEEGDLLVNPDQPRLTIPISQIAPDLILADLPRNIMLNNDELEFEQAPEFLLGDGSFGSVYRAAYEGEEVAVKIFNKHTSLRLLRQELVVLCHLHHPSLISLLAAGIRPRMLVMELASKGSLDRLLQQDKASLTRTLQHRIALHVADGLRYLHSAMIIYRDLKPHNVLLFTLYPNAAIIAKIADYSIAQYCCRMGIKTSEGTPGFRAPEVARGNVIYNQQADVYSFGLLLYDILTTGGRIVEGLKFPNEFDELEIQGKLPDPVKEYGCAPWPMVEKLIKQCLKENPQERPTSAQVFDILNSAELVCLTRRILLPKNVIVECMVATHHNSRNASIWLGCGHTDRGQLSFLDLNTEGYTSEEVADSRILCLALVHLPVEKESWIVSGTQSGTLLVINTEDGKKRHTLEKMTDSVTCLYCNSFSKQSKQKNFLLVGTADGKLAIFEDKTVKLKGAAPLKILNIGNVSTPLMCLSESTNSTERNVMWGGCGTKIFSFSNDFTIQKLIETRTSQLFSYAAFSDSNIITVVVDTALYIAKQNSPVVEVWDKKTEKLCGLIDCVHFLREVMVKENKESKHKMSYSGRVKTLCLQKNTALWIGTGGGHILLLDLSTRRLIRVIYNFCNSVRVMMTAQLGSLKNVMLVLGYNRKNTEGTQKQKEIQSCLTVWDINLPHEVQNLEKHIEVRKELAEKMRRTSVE

[8] = molecular target: Tyrosine-protein kinase Lyn (Homo sapiens) (UniProt P07948); assay: Inhibition of wild-type human partial length LYN (C219 to Q511 residues) expressed in bacterial expression system at 1 uM by Kinomescan method relative to control
[9] = molecular target: Tyrosine-protein kinase Mer (Homo sapiens) (UniProt Q12866); assay: Inhibition of wild-type human partial length MERTK (R557 to L884 residues) expressed in bacterial expression system at 1 uM by Kinomescan method relative to control
[10] = molecular target: NT-3 growth factor receptor (Homo sapiens) (UniProt Q16288); assay: Inhibition of wild-type human partial length TRKC (Q531 to G825 residues) expressed in mammalian expression system at 1 uM by Kinomescan method relative to control
[11] = molecular target: Phosphatidylinositol 3-kinase catalytic subunit type 3 (Homo sapiens) (UniProt Q8NEB9); assay: Inhibition of wild-type human partial length VPS34 (S282 to H879 residues) expressed in mammalian expression system at 1 uM by Kinomescan method relative to control
[12] = molecular target: Serine/threonine-protein kinase 32A (Homo sapiens) (UniProt Q8WU08); assay: Inhibition of wild-type human full length YANK1 (M1 to L396 residues) expressed in mammalian expression system at 1 uM by Kinomescan method relative to control
[13] = molecular target: Calcium/calmodulin-dependent protein kinase type 1G (Homo sapiens) (UniProt Q96NX5); assay: Inhibition of wild-type human partial length CAMK1G (M1 to A342 residues) expressed in bacterial expression system at 10 uM by Kinomescan method relative to control
[14] = molecular target: Dual specificity protein kinase CLK1 (Homo sapiens) (UniProt P49759); assay: Inhibition of wild-type human full length CLK1 (M1 to I484 residues) expressed in bacterial expression system at 10 uM by Kinomescan method relative to control
[15] = system: Fibroblast growth factor receptor 3 (Homo sapiens), P22607 [G697C]; assay: Inhibition of human partial length FGFR3 G697C mutant (R442 to S771 residues) expressed in bacterial expression system at 10 uM by Kinomescan method relative to control
Chain of Fibroblast growth factor receptor 3 (Homo sapiens), P22607 [G697C] (P22607 whole entry G697C, the tested form may be a part): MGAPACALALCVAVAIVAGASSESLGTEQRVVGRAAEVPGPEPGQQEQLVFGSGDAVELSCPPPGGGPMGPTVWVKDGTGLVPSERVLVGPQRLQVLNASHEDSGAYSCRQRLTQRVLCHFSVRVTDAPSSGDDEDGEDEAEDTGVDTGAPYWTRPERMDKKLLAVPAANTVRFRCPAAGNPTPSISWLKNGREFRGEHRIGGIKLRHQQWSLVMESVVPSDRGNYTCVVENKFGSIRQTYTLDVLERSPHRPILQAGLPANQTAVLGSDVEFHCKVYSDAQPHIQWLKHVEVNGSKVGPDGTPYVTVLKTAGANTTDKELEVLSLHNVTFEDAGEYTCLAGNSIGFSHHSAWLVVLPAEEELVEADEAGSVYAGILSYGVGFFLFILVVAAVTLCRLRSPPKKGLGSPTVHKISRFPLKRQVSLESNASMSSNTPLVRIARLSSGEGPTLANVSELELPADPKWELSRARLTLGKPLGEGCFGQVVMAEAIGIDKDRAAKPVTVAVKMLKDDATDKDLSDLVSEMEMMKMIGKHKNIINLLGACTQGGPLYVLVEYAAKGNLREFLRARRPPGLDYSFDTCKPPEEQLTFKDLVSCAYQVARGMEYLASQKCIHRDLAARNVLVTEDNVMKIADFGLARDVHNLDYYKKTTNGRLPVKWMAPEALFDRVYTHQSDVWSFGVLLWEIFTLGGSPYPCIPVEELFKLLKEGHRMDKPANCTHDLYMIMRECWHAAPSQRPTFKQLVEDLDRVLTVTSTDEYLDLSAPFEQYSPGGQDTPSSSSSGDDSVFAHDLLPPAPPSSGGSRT

[16] = system: Receptor-type tyrosine-protein kinase FLT3 (Homo sapiens), P36888 [D835V]; assay: Inhibition of human partial length FLT3 D835V mutant (V592 to Y969 residues) expressed in bacterial expression system at 10 uM by Kinomescan method relative to control
[17] = system: Receptor-type tyrosine-protein kinase FLT3 (Homo sapiens), P36888 [UNDEFINED MUTATION]; assay: Inhibition of human partial length FLT3 ITD/D835V double mutant expressed in bacterial expression system at 10 uM by Kinomescan method relative to control
[18] = molecular target: Vascular endothelial growth factor receptor 3 (Homo sapiens) (UniProt P35916); assay: Inhibition of wild-type human partial length FLT4 (E821 to E1196 residues) expressed in bacterial expression system at 10 uM by Kinomescan method relative to control
[19] = molecular target: Tyrosine-protein kinase JAK2 (Homo sapiens) (UniProt O60674); assay: Inhibition of wild-type human partial length JAK2 JH1 catalytic domain (A829 to G1132 residues) expressed in mammalian expression system at 10 uM by Kinomescan method relative to control
[20] = system: Leucine-rich repeat serine/threonine-protein kinase 2 (Homo sapiens), Q5S007 [G2019S]; assay: Inhibition of human partial length LRRK2 G2019S mutant (H970 to E2527 residues) expressed in mammalian expression system at 10 uM by Kinomescan method relative to control
[21] = molecular target: Mitogen-activated protein kinase kinase kinase 10 (Homo sapiens) (UniProt Q02779); assay: Inhibition of wild-type human partial length MLK2 (V52 to W380 residues) expressed in bacterial expression system at 10 uM by Kinomescan method relative to control
[22] = molecular target: Serine/threonine-protein kinase Nek5 (Homo sapiens) (UniProt Q6P3R8); assay: Inhibition of wild-type human partial length NEK5 (M1 to M279 residues) expressed in bacterial expression system at 10 uM by Kinomescan method relative to control
[23] = molecular target: Mitogen-activated protein kinase 11 (Homo sapiens) (UniProt Q15759); assay: Inhibition of wild-type human full length p38-beta (M1 to Q364 residues) expressed in bacterial expression system at 10 uM by Kinomescan method relative to control
Chain of Mitogen-activated protein kinase 11 (Homo sapiens) (Q15759 whole entry, the tested form may be a part): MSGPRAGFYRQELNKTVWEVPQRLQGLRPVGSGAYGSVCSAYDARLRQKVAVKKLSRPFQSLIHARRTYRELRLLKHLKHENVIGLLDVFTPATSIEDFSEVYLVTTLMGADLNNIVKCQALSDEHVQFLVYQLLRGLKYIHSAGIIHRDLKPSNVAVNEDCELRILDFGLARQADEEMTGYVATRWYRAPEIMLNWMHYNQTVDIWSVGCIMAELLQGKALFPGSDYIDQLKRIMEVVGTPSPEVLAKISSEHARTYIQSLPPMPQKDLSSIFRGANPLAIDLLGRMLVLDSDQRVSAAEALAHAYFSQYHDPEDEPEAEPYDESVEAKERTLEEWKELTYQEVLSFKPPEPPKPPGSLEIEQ

[24] = molecular target: Serine/threonine-protein kinase PAK 5 (Homo sapiens) (UniProt Q9P286); assay: Inhibition of wild-type human partial length PAK7 (Y400 to H719 residues) expressed in bacterial expression system at 10 uM by Kinomescan method relative to control
[25] = molecular target: Phosphatidylinositol 4-phosphate 3-kinase C2 domain-containing subunit beta (Homo sapiens) (UniProt O00750); assay: Inhibition of wild-type human partial length PIK3C2B (M1 to L1634 residues) expressed in mammalian expression system at 10 uM by Kinomescan method relative to control
[26] = molecular target: Receptor-interacting serine/threonine-protein kinase 1 (Homo sapiens) (UniProt Q13546); assay: Inhibition of wild-type human partial length RIPK1 (M1 to K305 residues) expressed in bacterial expression system at 10 uM by Kinomescan method relative to control
[27] = molecular target: Ribosomal protein S6 kinase alpha-5 (Homo sapiens) (UniProt O75582); assay: Inhibition of wild-type human partial length N-terminal RPS6KA5 kinase domain 1 expressed in bacterial expression system at 10 uM by Kinomescan method relative to control

Work on `O=C(Nc1cccc([C@@H]2CN(c3ncnc4[nH]ccc34)CCN2CCO)c1)Nc1c(F)cccc1N1CCCC1` yielded an IC50 [1] of 240 nM, an inhibition [2] of 92% and an inhibition [3] of 99%. The inhibition [4] was 100%, the inhibition [5] was 99% and the inhibition [6] was 4.3%. For the same molecule, the inhibition [7] was 100%, the inhibition [8] was 72% and the inhibition [9] was 31%. For the same molecule, the inhibition [10] was 99%, the inhibition [11] was 100% and the inhibition [12] was 100%.
For `O=C(Nc1cccc([C@H]2CCCN(c3ncnc4[nH]ccc34)C2)c1)Nc1ccccc1N1CCCC1`, the inhibition [13] was 85%, the inhibition [14] was 68% and the inhibition [15] was 53%. The inhibition [16] was 4.3%, the inhibition [17] was 8.3% and the inhibition [18] was 0.55%. The inhibition [19] was 0%, the inhibition [20] was 63% and the inhibition [21] was 100%. For the same molecule, the inhibition [22] was 100%, the inhibition [23] was 100% and the inhibition [24] was 69%. The inhibition [25] was 51%, the inhibition [26] was 100% and the inhibition [27] was 100%.
